Laboratory results: US20200325177A1, “METHODS OF MAKING STREPTOGRAMIN COMPOSITIONS AND THE USE THEREOF” (THE REGENTS OF THE UNIVERSITY OF CALIFORNIA, priority 2017, published 2020)
Converted amounts (≈) assume the structure as drawn. Like-named read-outs stand apart in the source and are kept apart here.

Columns and labels:
Format in all cases: cell-based
[1] = system: K. pneumoniae multidrug-resistant; test: MIC, Gram-negative bacteria: K. pneumoniae multidrug-resistant; conditions: Klebsiella pneumoniae, read-out: Minimal Inhibitory Concentration (MIC) K. pneumoniae multidrug-resistant
[2] = system: S. aureus Linezolid-resistant; cfr; test: MIC, Gram-positive bacteria: S. aureus Linezolid-resistant; cfr; conditions: Staphylococcus aureus, column 9, read-out: Minimal Inhibitory Concentration (MIC) S. aureus Linezolid-resistant
[3] = system: P. aeruginosa MDR clinical isolate; test: MIC, Gram-negative bacteria: P. aeruginosa MDR clinical isolate; conditions: Pseudomonas aeruginosa, read-out: Minimal Inhibitory Concentration (MIC) P. aeruginosa MDR clinical isolate
[4] = system: S. aureus Vat A streptogramin; test: MIC, Gram-positive bacteria: S. aureus Vat A streptogramin; conditions: Staphylococcus aureus; Gram-positive; column 5; read-out: Minimal Inhibitory Concentration (MIC) S. aureus Vat A streptogramin
S. aureus = test: MIC, Gram-positive bacteria: S. aureus (strains not named); conditions: Staphylococcus aureus, read-out: Minimal Inhibitory Concentration (MIC) S. aureus
E. faecium VRE; vanA = test: MIC, Gram-positive bacteria: E. faecium VRE; vanA; conditions: Enterococcus faecium, column 3, read-out: Minimal Inhibitory Concentration (MIC) E. faecium VRE
Gram-Negative Organisms = test: microbe, parasite or virus in culture
H. influenzae ATCC 49247 = test: MIC, Gram-negative bacteria: H. influenzae ATCC 49247; conditions: Haemophilus influenzae, ATCC49247, read-out: Minimal Inhibitory Concentration (MIC) H. influenzae ATCC 49247
S. pneumoniae = test: MIC, Gram-positive bacteria: S. pneumoniae; conditions: Streptococcus pneumoniae, column 10, read-out: Minimal Inhibitory Concentration (MIC) S. pneumoniae
E. faecalis = test: MIC, Gram-positive bacteria: E. faecalis; conditions: Enterococcus faecalis, column 1, read-out: Minimal Inhibitory Concentration (MIC) E. faecalis
E. faecium ATCC 35667 = test: MIC, Gram-positive bacteria: E. faecium ATCC 35667; conditions: Enterococcus faecium, ATCC35667, column 2, read-out: Minimal Inhibitory Concentration (MIC) E. faecium ATCC 35667
P. aeruginosa ATCC 27853 = test: MIC, Gram-negative bacteria: P. aeruginosa ATCC 27853; conditions: Pseudomonas aeruginosa, ATCC27853, read-out: Minimal Inhibitory Concentration (MIC) P. aeruginosa ATCC 27853
[5] = first unnamed S. aureus column (c4)
[6] = fourth unnamed S. aureus column (c8)
[7] = second unnamed S. aureus column (c6)
[8] = third unnamed S. aureus column (c7)
[9] = Acinetobacter baumannii, ATCC19606, read-out: Minimal Inhibitory Concentration (MIC), A. baumannii ATCC 19606
[10] = Escherichia coli, ATCC25922, read-out: Minimal Inhibitory Concentration (MIC), E. coli ATCC 25922
[11] = Escherichia coli, read-out: Minimal Inhibitory Concentration (MIC), E. coli BAS2006, OMP C, OMP F
[12] = Escherichia coli, read-out: Minimal Inhibitory Concentration (MIC), E. coli olC efflux defective
[13] = Escherichia coli, read-out: Minimal Inhibitory Concentration (MIC), E. coli permeability mutant BAS1314, IMP4213ZAB::TN10
[14] = Klebsiella pneumoniae, ATCC43816, read-out: Minimal Inhibitory Concentration (MIC), K. pneumoniae ATCC 43816
[15] = Escherichia coli, read-out: Minimal Inhibitory Concentration (MIC), E. coli ΔompC768, KanR insert

| Structure (SMILES) | MIC [1] [mg/L] | MIC [2] [mg/L] | MIC [3] [mg/L] | MIC [4] [mg/L] | MIC (S. aureus; [5]) [mg/L] | MIC (S. aureus; [6]) [mg/L] | MIC (S. aureus; [7]) [mg/L] | MIC (S. aureus; [8]) [mg/L] | MIC (E. faecium VRE; vanA) [mg/L] | MIC (Gram-Negative Organisms; [9]) [mg/L] | MIC (Gram-Negative Organisms; [10]) [mg/L] | MIC (Gram-Negative Organisms; [11]) [mg/L] | MIC (Gram-Negative Organisms; [12]) [mg/L] | MIC (Gram-Negative Organisms; [13]) [mg/L] | MIC (Gram-Negative Organisms; [14]) [mg/L] | MIC (H. influenzae ATCC 49247) [mg/L] | MIC (S. pneumoniae) [mg/L] | MIC (E. faecalis) [mg/L] | MIC (E. faecium ATCC 35667) [mg/L] | MIC (P. aeruginosa ATCC 27853) [mg/L] | also measured |
| --- | --- | --- | --- | --- | --- | --- | --- | --- | --- | --- | --- | --- | --- | --- | --- | --- | --- | --- | --- | --- | --- |
| CC1=C\[C@@H](O)CC(=O)Cc2nc(co2)C(=O)N2CCC[C@@H]2C(=O)O[C@H]([C@@H](C)COC(=O)Nc2ccc(C(F)(F)F)cc2)[C@H](C)/C=C/C(=O)NC\C=C\1 [SA0110044] | > 64 | > 64 | > 64 | > 64 | > 64 | 32 (≈ 43.8 µM) | > 64 | > 64 | > 64 | > 64 | > 64 | > 64 | 16 (≈ 21.9 µM) | 16 (≈ 21.9 µM) | > 64 | > 64 | > 64 | > 64 | 16 (≈ 21.9 µM) | > 64 | – |
| CC1=C\[C@@H](O)CC(=O)Cc2nc(co2)C(=O)N2CCC[C@@H]2C(=O)O[C@H]([C@H](C)CF)[C@H](C)/C=C/C(=O)NC\C=C\1 [SA0110273] | > 64 | > 64 | > 64 | > 64 | 64 (≈ 117 µM) | 32 (≈ 58.7 µM) | 64 (≈ 117 µM) | 64 (≈ 117 µM) | 64 (≈ 117 µM) | > 64 | > 64 | 16 (≈ 29.3 µM) | 4 (≈ 7.33 µM) | 8 (≈ 14.7 µM) | > 64 | 8 (≈ 14.7 µM) | 16 (≈ 29.3 µM) | > 64 | 16 (≈ 29.3 µM) | > 64 | MIC (Gram-Negative Organisms; [15]): > 64 mg/L |
| CC1=C\[C@@H](O)CC(=O)Cc2nc(co2)C(=O)N2CCC[C@@H]2C(=O)O[C@H]([C@H](C)CO)[C@H](C)/C=C/C(=O)NC\C=C\1 [SA0110170] | > 64 | > 64 | > 64 | > 64 | > 64 | > 64 | > 64 | > 64 | > 64 | > 64 | > 64 | > 64 | 32 (≈ 58.9 µM) | 32 (≈ 58.9 µM) | > 64 | 32 (≈ 58.9 µM) | 64 (≈ 118 µM) | > 64 | > 64 | > 64 | MIC (Gram-Negative Organisms; [15]): > 64 mg/L |
| CC1=C\[C@@H](O)CC(=O)Cc2nc(co2)C(=O)N2CCC[C@@H]2C(=O)O[C@H]([C@H](C)COC(=O)Nc2coc(C)n2)[C@H](C)/C=C/C(=O)NC\C=C\1 [SA0110210] | > 64 | > 64 | > 64 | > 64 | > 64 | > 64 | > 64 | > 64 | 64 (≈ 95.8 µM) | > 64 | > 64 | > 64 | 8 (≈ 12 µM) | 8 (≈ 12 µM) | > 64 | 16 (≈ 24 µM) | 64 (≈ 95.8 µM) | > 64 | 64 (≈ 95.8 µM) | > 64 | MIC (Gram-Negative Organisms; [15]): > 64 mg/L |
| CC1=C\[C@@H](O)CC(=O)Cc2nc(co2)C(=O)N2CCC[C@@H]2C(=O)O[C@H]([C@H](C)COC(=O)Nc2ccn(C)n2)[C@H](C)/C=C/C(=O)NC\C=C\1 [SA0110218] | > 64 | > 64 | > 64 | > 64 | > 64 | > 64 | > 64 | > 64 | > 64 | > 64 | > 64 | > 64 | 16 (≈ 24 µM) | 32 (≈ 48 µM) | > 64 | 32 (≈ 48 µM) | > 64 | > 64 | > 64 | > 64 | MIC (Gram-Negative Organisms; [15]): > 64 mg/L |
| CC1=C\[C@@H](O)C[C@@H](F)Cc2nc(co2)C(=O)N2CCC[C@@H]2C(=O)O[C@H](C(C)C)[C@H](C)/C=C/C(=O)NC\C=C\1 [flopristin, reference compound] | > 64 | > 64 | > 64 | 8 (≈ 15 µM) | 0.5 (≈ 0.941 µM) | 0.5 (≈ 0.941 µM) | 0.5 (≈ 0.941 µM) | 1 (≈ 1.88 µM) | 2 (≈ 3.76 µM) | > 64 | 32 (≈ 60.2 µM) | 0.25 (≈ 0.47 µM) | 1 (≈ 1.88 µM) | < 0.06 | > 64 | 0.25 (≈ 0.47 µM) | 2 (≈ 3.76 µM) | > 64 | 0.5 (≈ 0.941 µM) | > 64 | MIC (Gram-Negative Organisms; [15]): 64 mg/L (≈ 120 µM) |
| CC1=C\[C@@H](O)C[C@@H](O)Cc2nc(cs2)C(=O)N2CCC[C@@H]2C(=O)O[C@H](C(C)C)[C@H](C)/C=C/C(=O)NC\C=C\1 [SA0110264] | > 64 | > 64 | > 64 | > 64 | 8 (≈ 14.7 µM) | 8 (≈ 14.7 µM) | 16 (≈ 29.3 µM) | 16 (≈ 29.3 µM) | 4 (≈ 7.33 µM) | > 64 | > 64 | 4 (≈ 7.33 µM) | 2 (≈ 3.67 µM) | 1 (≈ 1.83 µM) | > 64 | 1 (≈ 1.83 µM) | 2 (≈ 3.67 µM) | > 64 | 1 (≈ 1.83 µM) | > 64 | MIC (Gram-Negative Organisms; [15]): > 64 mg/L |
| CC(C)[C@H]1OC(=O)[C@H]2CCCN2C(=O)c2coc(n2)CC(=O)C[C@H](O)/C=C/C=C/CNC(=O)/C=C/[C@H]1C [SA0110239] | > 64 | > 64 | > 64 | > 64 | > 64 | > 64 | > 64 | > 64 | > 64 | > 64 | > 64 | 64 (≈ 125 µM) | 8 (≈ 15.6 µM) | 8 (≈ 15.6 µM) | > 64 | > 64 | 64 (≈ 125 µM) | > 64 | > 64 | > 64 | MIC (Gram-Negative Organisms; [15]): > 64 mg/L |
